Numbers after ± are expanded uncertainties.
Assay: xn = mol fraction of the nth substance listed
Details: Fluid (supercritical or subcritical phases), x1 = 0.97; for speed of sound: Frequency=5 MHz, Pulse-echo method; for mass density: 283.15 K, Vibrating tube method

O=C=O [carbon dioxide] + CO
speed of sound [m/s]
Details	273.15 K	283.14 K
14010 kPa	–	615.2 ± 0.9
20000 kPa	–	679.8 ± 1
25010 kPa	–	725 ± 1
29940 kPa	–	763.8 ± 1
34980 kPa	–	799.7 ± 1.1
39940 kPa	–	831.8 ± 1.1
39990 kPa	875.6 ± 1.2	–
44950 kPa	903.5 ± 1.2	–
45090 kPa	–	862.8 ± 1.1
49960 kPa	929.9 ± 1.2	–
50150 kPa	–	890.9 ± 1.2
54970 kPa	954.7 ± 1.2	–
55020 kPa	–	916.3 ± 1.2
59830 kPa	–	940.2 ± 1.2
60000 kPa	978.4 ± 1.3	–
64950 kPa	1000.7 ± 1.3	964.2 ± 1.3
69990 kPa	1022.2 ± 1.3	–
70150 kPa	–	987.4 ± 1.3
74930 kPa	1042.5 ± 1.3	–
74970 kPa	–	1007.9 ± 1.3
79680 kPa	–	1027.1 ± 1.3
80120 kPa	1062.9 ± 1.4	–
90140 kPa	1100 ± 1.4	–
90230 kPa	–	1067.9 ± 1.4
99950 kPa	–	1102.7 ± 1.4
99970 kPa	1134.2 ± 1.5	–
109900 kPa	–	1136.3 ± 1.5
110030 kPa	1167 ± 1.5	–
120080 kPa	–	1168.8 ± 1.5
120150 kPa	1198.3 ± 1.5	–
139940 kPa	1255 ± 1.6	–
140090 kPa	–	1227.7 ± 1.6
159790 kPa	1307.2 ± 1.7	–
159980 kPa	–	1281 ± 1.6
180050 kPa	–	1330.2 ± 1.7
180530 kPa	1357.4 ± 1.7	–

Details	mass density [kg/m3]
5300 kPa	882.11 ± 0.81
5325 kPa	882.5 ± 0.81
5350 kPa	882.83 ± 0.81
5375 kPa	883.08 ± 0.81
5400 kPa	883.4 ± 0.81
5425 kPa	883.67 ± 0.81
5450 kPa	883.98 ± 0.81
5475 kPa	884.26 ± 0.81
5500 kPa	884.47 ± 0.81
5525 kPa	884.8 ± 0.81
5550 kPa	885.04 ± 0.81
5575 kPa	885.37 ± 0.81
5600 kPa	885.62 ± 0.81
5625 kPa	885.95 ± 0.81
5650 kPa	886.26 ± 0.81
5675 kPa	886.49 ± 0.81
5700 kPa	886.8 ± 0.81
5725 kPa	887.09 ± 0.81
5750 kPa	887.39 ± 0.81
5775 kPa	887.67 ± 0.81
5800 kPa	888.01 ± 0.81
5825 kPa	888.24 ± 0.81
5850 kPa	888.54 ± 0.81
5875 kPa	888.77 ± 0.81
5900 kPa	889.08 ± 0.81
5925 kPa	889.31 ± 0.81
5950 kPa	889.55 ± 0.81
5975 kPa	889.92 ± 0.81
6000 kPa	890.13 ± 0.81
6025 kPa	890.33 ± 0.81
6050 kPa	890.62 ± 0.81
6075 kPa	890.95 ± 0.81
6100 kPa	891.19 ± 0.81
6125 kPa	891.52 ± 0.81
6150 kPa	891.86 ± 0.81
6175 kPa	892.08 ± 0.81
6200 kPa	892.35 ± 0.81
6225 kPa	892.62 ± 0.81
6250 kPa	892.89 ± 0.81
6275 kPa	893.14 ± 0.81
6300 kPa	893.45 ± 0.81
6325 kPa	893.63 ± 0.81
6350 kPa	893.89 ± 0.81
6375 kPa	894.18 ± 0.81
6400 kPa	894.43 ± 0.81
6425 kPa	894.67 ± 0.81
6450 kPa	894.92 ± 0.81
6475 kPa	895.17 ± 0.81
6500 kPa	895.37 ± 0.81
6525 kPa	895.62 ± 0.81
6550 kPa	895.96 ± 0.81
6575 kPa	896.11 ± 0.81
6600 kPa	896.41 ± 0.81
6625 kPa	896.62 ± 0.81
6650 kPa	896.9 ± 0.81
6675 kPa	897.02 ± 0.81
6700 kPa	897.4 ± 0.81
6725 kPa	897.56 ± 0.81
6750 kPa	897.77 ± 0.81
6775 kPa	898.06 ± 0.81
6800 kPa	898.37 ± 0.81
6825 kPa	898.6 ± 0.81
6850 kPa	898.87 ± 0.81
6875 kPa	899.09 ± 0.81
6900 kPa	899.3 ± 0.81
6925 kPa	899.5 ± 0.81
6950 kPa	899.65 ± 0.81
6975 kPa	899.77 ± 0.81
7000 kPa	899.79 ± 0.81
7025 kPa	899.99 ± 0.81
7050 kPa	900.2 ± 0.81
7075 kPa	900.45 ± 0.81
7100 kPa	900.68 ± 0.81
7125 kPa	900.92 ± 0.81
7150 kPa	901.15 ± 0.81
7175 kPa	901.36 ± 0.81
7200 kPa	901.57 ± 0.81
7225 kPa	901.84 ± 0.81
7250 kPa	902.09 ± 0.81
7275 kPa	902.25 ± 0.81
7300 kPa	902.49 ± 0.81
7325 kPa	902.74 ± 0.81
7350 kPa	902.98 ± 0.81
7375 kPa	903.16 ± 0.81

From the NIST ThermoML archive (doi:10.1016/j.jct.2016.03.026)
